Test results as given in patent US10906909B2, “Treatment of cognitive and mood symptoms in neurodegenerative and neuropsychiatric disorders with ALPHA5-containing GABAA receptor agonists” (UWM Research Foundation, Inc., priority 2016, dated 2021).

Tests used:
rats [1] = assay: Social novelty discrimination (SND); format: in vivo, rat; settings: 2.5 mg/kg diazepam (so in the source)
Protocol: The SND test compares the social investigation times of an adult rat with a familiar and a novel juvenile rat. Testing consisted of two consecutive juvenile presentations periods to an adult subject: period 1 (P1) and period 2 (P2). At the beginning of P1, one juvenile was placed into the adult home cage and the time spent by the adult investigating the juvenile (anogenital sniffing, licking, close pursuing and pawing) was recorded manually for 5 min. During P2, the same juvenile and a second, novel juvenile were placed in the cage together with the adult, and the times spent by the adult investigating each juvenile were measured independently for 3 min. A different pair of juvenile rats was presented to each adult tested. Manual scoring was conducted in a blinded manner. SND was deliberately impaired in control rats by the parametric manipulation applied, as there was 30 min delay between P1 and P2, and their SND was expected to be low. The influence of MP-III-022 (1, 2.5 or 10 mg/kg) on the thus induced impairment in SND was examined. There were five groups of rats which received one of the following treatments 20 min before P1: solvent, 1.5 mg/kg diazepam and 1, 2.5 and 10 mg/kg MP-III-022. The amount of time investigating familiar (Tf) and novel (Tn) juvenile during P2 was manually scored, and discrimination indexes (Tn−Tf/Tn+Tf) was calculated. Total exploration time during P1 and P2 was also manually recorded.

rats [2] = assay: Morris water maze; format: in vivo, rat; settings: diazepam 2 mg/kg, positive control
Protocol: The potential of MP-III-022 to affect cognitive performance of rats was assessed in 2 well-validated behavioral models. First, Morris water maze experiments were performed in a 2 m diameter circular pool filled to a height of 30 cm with water at 22±1° C. The escape platform (15 cm×10 cm) was submerged 2 cm below the water surface. All experimental details were as described in Savic et al. (Int. J. Neuropsychopharmacol. 2009, 12, 1179-1193). On each of the five consecutive days rats were given one swimming block, consisting of four trials. For each trial the rat was placed in the water at one of four pseudo-randomly determined starting positions. Once the rat has found and mounted the escape platform it was permitted to remain on the platform for 15 s. […] During the acquisition phase, treatments were applied once daily before the swimming block. On the sixth day, rats were given a treatment-free probe test (60 s) without the platform. The probe test was started from the novel, most distant location. Dependent variables chosen for tracking during the acquisition trials were: escape latency (s), total distance traveled (m), path efficiency (the ratio of the shortest possible path length to actual path length), % of distance swam in the peripheral annulus and mean speed (m/s). The selected parameters in the probe test were the distance swam in the target zone […] and % of the distance swam in the peripheral annulus. We tested the effects of 1, 2.5 and 10 mg/kg MP-III-022 and 2 mg/kg diazepam as control drug. The doses of MP-III-022 were selected so that they elicit a mild, moderate and strong positive modulation of α5GABAARs, respectively, in accordance with the analysis of thorough pharmacokinetic and electrophysiological data presented in Stamenic et al. (Eur. J. Pharmacol. 2016, 791, 433-443). The data from the acquisition days in the Morris water maze were averaged for each rat (total data/total number of trials per day) and analyzed using two-way ANOVA with repeated measures (factors: Treatment and Days) with Days as the repeated measure. In the case of significant interaction, separate one-way ANOVAs were conducted to assess the influence of treatment within individual levels of factor Days. The data from the probe test were assessed using one-way ANOVA.

[3] = test system: Female Swiss Webster mice; assay: Rotarod sensorimotor / locomotor coordination; format: in vivo, mouse; settings: diazepam 5 mg/kg oral gavage; positive control
Protocol: Female Swiss Webster mice (10 weeks of age) from Charles River Laboratory, WIL, MA were used for the experiments. The animals were housed under specific pathogen-free conditions, under standard conditions of humidity, temperature and a controlled 12 h light and dark cycle and had free access to food and water. The sensorimotor rotarod test was carried out 10, 30 and 60 minutes after the injection. Mice were tested on a rotarod at 15 rpm for maximum 3 min and the time of fall was recorded. Falling before the 3 minutes period of testing assesses of locomotor coordination impairment induced by the compound.
Mice (N=10/group) received a single administration via oral gavage of test compound (40 mg/kg), diazepam (5 mg/kg), or vehicle (2% polyethylene glycol, 2.5% hydroxypropylmethyl cellulose solution).

CN1C(=O)CN=C(c2ccccc2)c2cc(Cl)ccc21 [diazepam, reference compound]
time exploring the familiar and the novel juvenile rat during P2 (rats [1]): statistical trend
spatial learning during acquisition in the water maze (rats [2]): spatial learning incapacitation
sensorimotor performance on rotarod (time of fall) [3]: sensorimotor steadiness at 10 minutes
